According to patent publication US8551997B2, “Structural-based inhibitors of the glutathione binding site in aldose reductase, methods of screening therefor and methods of use” (The Board of Regents of the University of Texas System, priority 2004, dated 2013):

Key:
C57BL/6 mice [1] = assay: LPS-induced cytokines in serum and heart of mice; assay type: in vivo, mouse
Experimental: At the indicated times, TNF-a, IL-6, IL-12, interferon (IFN)-g, IL-1b, and monocyte chemo attractant protein (MCP)-1 levels in serum and in heart homogenates were determined (FIGS. 6A-6D). Prostaglandin E2 (PGE-2), cyclo-oxygenase 2 (COX-2), and nitrate levels were measured separately (FIG. 6E). Solid symbols, values from the mice injected with LPS; open symbols, values from the mice treated with LPS and sorbinil.
In sorbinil-treated mice, however, serum cytokine levels increased only 2-fold, began declining within 4 h, and returned to baseline levels within 12 h.

Caco-2 cells [2] = assay: Cox-2 mRNA RT-PCR in Caco-2 cells; assay type: cell-based, human; settings: sorbinil 24 h, growth factor 3 h
Experimental: Total RNA was isolated from Caco-2 cells by using Rnaeasy micro isolation kit (Qiagen). Total RNA (1.5 μg) sample was reverse transcribed with Omniscript and Sensiscript reverse transcriptase one-Step RT PCR system with HotStarTaq DNA polymerase (Qiagen) at 55° C. for 30 min followed by PCR amplification. The oligonucleotide primer sequences were as follows: 5′-[…]-3′ (sense; SEQ ID NO: 4) and 5′-[…]-3′ (antisense; SEQ ID NO: 5) for Cox-2, and 5′-[…]-3′ (SEQ ID NO: 6) and 5′-[…]-3′ (SEQ ID NO: 7) for β-actin. PCR reaction was carried out in a GeneAmp 2700 thermocycler (Applied Biosystems, Foster City, Calif.) under the following conditions: initial denaturation at 95° C. for 15 min; 35 cycles of 94° C. 30 s, 62° C. 30 s, 72° C. 1 min, and then 72° C. 5 min for final extension (57). PCR products were electrophoresed in 2% Agarose-1™ TAE gels containing 0.5 μg/ml ethidium bromide.

Caco-2 cells [3] = assay: NF-kB-dependent reporter SEAP expression assay; assay type: cell-based, human
Experimental: Caco-2 cells (1.5×10^5 cells/well) were plated in six-well plates and after attachment overnight, were serum-starved in optiMEM medium for 24 h with or without aldose reductase inhibitor, sorbinil (20 μM) and were transiently transfected with pNF-kB-SEAP construct or control plasmid pTALSEAP DNA (Clontech, USA) using the lipofectamine plus reagent. After 6 h of transfection, cells were treated either with 10 ng/ml BFGF or PDGF for 48 h in DMEM medium containing 0.1% FBS. The cell culture medium was then harvested and analyzed for SEAP activity, essentially as described by the manufacturer (Clontech Laboratories, Palo Alto, Calif.), using a 96-well chemiluminescence plate reader and Kodak Image Station 2000R.

BALB/C mice = assay: Azoxymethane-induced colon carcinogenesis, ACF analysis; assay type: in vivo, mouse; settings: 9 weeks
Experimental: Approximately six weeks old mice were divided into 4 groups (5 mice/group). Mice in groups 3 and 4 were treated with azoxymethane in sterile saline, at a dose of 10 mg/kg body weight i.p. once a week, for 3 weeks. In group 4, mice were treated with AR inhibitor sorbinil (25 mg/kg body weight per day) for entire period after 1 week from the first azoxymethane injection. Mice in groups 1 and 2 received equal volumes of sterile saline and sorbinil, respectively. Similarly AR knock out mice also were treated with azoxymethane (10 mg/kg body weight i.p.) once a week for 3 weeks. After 9 weeks all mice were killed by CO2 euthanasia. The colons were removed, flushed with saline and opened from anus to cecum and fixed flat between two pieces of filter paper in 10% buffered formalin for 24 h. Colons were stained with 0.2% methylene blue dissolved in saline and the numbers of aberrant crypts foci (ACF) were counted under a microscope at 200× magnification.
BALB/C mice were injected with azoxymethane or saline and treated with and with out AR inhibitor, sorbinil as described in Example 2. At the early preneoplastic stage (9 weeks after first azoxymethane injection), mice were sacrificed and their colons were removed and analyzed microscopically for the presence of ACF. […]

Caco-2 cells [4] = assay: NF-kB p65 transcription factor (DNA binding) assay; assay type: cell-based, human
Experimental: The cytosolic as well as nuclear extracts were prepared as described earlier (15) and the NF-kB activity was determined by using the colorimetric non-radioactive NF-kB p65 Transcription Factor Assay kit (Chemicon Intl.) as per the supplier's instructions. Briefly, a double stranded biotinylated oligonucleotide containing the consensus sequence for NF-kB binding (5′-[…]-3′; SEQ ID NO: 3) was mixed with nuclear extract and assay buffer. After incubation, the mixture (probe+extract+buffer) was transferred to the streptavidin-coated ELISA kit and read at 450 nm using an ELISA plate reader. For each experiment, triplicate samples were measured for statistical significance.

Caco-2 cells [5] = assay: Cyclooxygenase activity assay in Caco-2 cells; assay type: cell-based, human; set-up: dose or concentration left out as unconfirmed; settings: 24 h
Experimental: For determination of Cox activity growth-arrested Caco-2 cells were treated with either 10 ng/ml BFGF or PDGF in the absence and presence of sorbinil […] for 24 h. The cells were harvested and homogenized in cold (4° C.) buffer containing 0.1M Tris-Hcl, pH 7.8 and 1 mM EDTA and the activity was measured in 96 well plate according to the manufacturer's (Cayman Chemical Co., Inc.) instructions. Briefly, 10 μl of standard/sample were incubated in the presence of arachidonic acid and substrate, N,N, N,N-tetra methyl-p-phenylenediamine (TMPD) in a total reaction volume of 210 μl. The Cox peroxidase activity was measured colorimetrically by monitoring appearance of oxidized TMPD at 590 nm by using ELISA reader.

C57BL/6 mice [6] = assay: LPS signaling in the heart (NF-kB, AP1, iNOS, kinases); assay type: in vivo, mouse
Text: At the indicated times, NF-kB activation (FIG. 8A), AP1 activation with an electrophoretic mobility shift assay (FIG. 8B), iNOS expression by western blotting (FIG. 8C), or PKC activation with a total PKC assay system (FIG. 8D) (SignaTect, Promega), or phosphorylated forms of the indicated kinases by western blotting (FIG. 8E), was detected. Values are means±SEM (N=4). *P<0.001 versus LPS-treated mice. OD, optical density.
In sorbinil-treated mice, however, activation of NF-κB and AP1 decreased by ˜70% at 2 h, and the levels returned to baseline by 24 h. […] These findings are consistent with the downregulation of inflammatory cytokines and chemokines in the serum and heart upon AR inhibition (FIGS. 8A-8D). […] AR inhibition attenuated the phosphorylation of almost all members of this cascade (FIG. 8D-8E). Thus, AR appears to […] the inflammatory cascade by regulating the activation of NF-κB, thereby protecting against cardiovascular collapse in the setting of overwhelming sepsis.

[7] = sorbinil pretreatment, LPS 4 mg/kg

## (S)-6-fluorospiro[chroman-4,4′-imidazolidine]-2,5′-dione [sorbinil]
C57BL/6 mice [1]; sorbinil 2 h after LPS exposure
  maladaptive systemic inflammatory response in serum: blunted
C57BL/6 mice [1]; [7]
  time at which serum cytokine levels began declining: ≤ 4 h
  time at which serum cytokine levels returned to baseline: ≤ 12 h
C57BL/6 mice [1]; sorbinil pretreatment, LPS 4 mg/kg peritoneally
  increase of serum cytokine levels after LPS: 2 fold
Caco-2 cells [2]
  prevention of BFGF or PDGF-induced Cox-2 mRNA levels: 55-65%
Caco-2 cells [3]; sorbinil 20 μM
  inhibition of BFGF and PDGF-induced NF-κB-dependent reporter (SEAP) activation: > 60%
Caco-2 cells [3]; sorbinil alone
  NF-κB-SEAP activity: did not affect
BALB/C mice
  azoxymethane-induced Cox-2 and iNOS expression in mice colons: inhibits
BALB/C mice; azoxymethane+sorbinil 25 mg/kg body weight per day
  number of average ACF/colon: 2.4±0.5
Caco-2 cells [4]
  inhibition of BFGF or PDGF-induced NF-kB DNA binding activity: > 70%
Caco-2 cells [5]
  BFGF and PDGF-induced Cox activity: abolished
C57BL/6 mice [6]; after LPS
  cardiac iNOS levels: increased only slightly
  phosphorylation of upstream kinases of NF-κB and AP1 (MAPK, IKK, PKC, PLC) in the heart: attenuated
C57BL/6 mice [6]; at 2 h after LPS
  decrease of cardiac AP1 activation: ~70%
  decrease of cardiac NF-κB activation: ~70%
C57BL/6 mice [6]; mouse, in vivo
  time at which NF-κB and AP1 levels returned to baseline: ≤ 24 h
